In patent US7009052B2, “Sulfonamide derivatives” (Warner Lambert Company LLC, priority 2003, dated 2006) one finds IC50 data, which are given here for 31 compounds.

Structures are written as SMILES.

The experiment concerns the target T1, androgen receptor (Homo sapiens, UniProt P10275).
T1 sequence (P10275 1-920 Q868H): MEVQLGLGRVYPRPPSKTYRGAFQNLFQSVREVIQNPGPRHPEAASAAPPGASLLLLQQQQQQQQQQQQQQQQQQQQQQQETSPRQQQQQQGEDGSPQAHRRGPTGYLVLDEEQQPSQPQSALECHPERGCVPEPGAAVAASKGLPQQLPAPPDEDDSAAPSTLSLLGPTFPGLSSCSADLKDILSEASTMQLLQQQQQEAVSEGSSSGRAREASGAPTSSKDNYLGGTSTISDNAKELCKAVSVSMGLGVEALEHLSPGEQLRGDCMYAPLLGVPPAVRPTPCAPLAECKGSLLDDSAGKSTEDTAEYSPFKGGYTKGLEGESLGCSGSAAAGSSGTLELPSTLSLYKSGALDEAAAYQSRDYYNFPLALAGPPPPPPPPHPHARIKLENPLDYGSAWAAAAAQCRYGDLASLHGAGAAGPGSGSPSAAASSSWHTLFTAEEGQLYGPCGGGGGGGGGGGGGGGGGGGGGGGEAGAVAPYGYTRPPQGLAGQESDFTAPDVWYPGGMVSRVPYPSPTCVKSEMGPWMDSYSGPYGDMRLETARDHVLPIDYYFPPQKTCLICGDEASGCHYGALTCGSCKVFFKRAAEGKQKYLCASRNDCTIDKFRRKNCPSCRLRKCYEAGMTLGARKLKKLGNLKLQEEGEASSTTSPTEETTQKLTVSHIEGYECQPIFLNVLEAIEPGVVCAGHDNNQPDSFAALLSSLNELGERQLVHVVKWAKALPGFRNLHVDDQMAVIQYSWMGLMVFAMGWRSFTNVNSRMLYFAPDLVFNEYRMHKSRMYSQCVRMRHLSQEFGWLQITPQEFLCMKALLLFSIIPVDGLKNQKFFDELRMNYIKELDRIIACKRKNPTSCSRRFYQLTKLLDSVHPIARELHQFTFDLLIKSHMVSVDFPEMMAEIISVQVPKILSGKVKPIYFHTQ
The experiment can be described thus: AR Antagonist Cell Assay (MMTV-luciferase reporter, DHT-induced). It is filed as cell-based. The conditions noted are these: MDA-MB453-MMTV clone 54-19 cells, 100 pM DHT, 17 hr. The method, boiled down: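 Stably transfected MDA-MB453 cells carrying an ARE-containing MMTV promoter–firefly luciferase reporter, pretreated 30 min with compound at 10 uM or 1 uM in 1% charcoal-treated serum medium. Then stimulated with 100 pM DHT for 17 hr at 37° C. and luminescence read; expressed as % inhibition of DHT-induced signal.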
`O=c1cc(C(F)(F)F)c2cc(S(=O)(=O)NCc3c(F)cccc3Cl)ccc2[nH]1` [Example 142, 2-Oxo-4-trifluoromethyl-1,2-dihydroquinoline-6-sulfonic acid2-chloro-6-fluorobenzylamide] displayed an IC50 of 2.39 µM.

As for `COc1ccc(N(Cc2ccccc2)S(=O)(=O)c2ccc3c(c2)c(C(F)(F)F)cc(=O)n3C)cc1` [Example 46, 1-Methyl-2-oxo-4-trifluoromethyl-1,2-dihydroquinoline-6-sulfonicacid benzyl(4-methoxy-phenyl)amide], the IC50 is > 10 µM.

In turn, `O=c1cc(C(F)(F)F)c2cc(S(=O)(=O)NCCCO)ccc2[nH]1` [Example 157, 2-Oxo-4-trifluoromethyl-1,2-dihydroquinoline-6-sulfonic acid(3-hydroxypropyl)amide] displayed an IC50 of 6.73 µM.

`COc1cc(NS(=O)(=O)c2ccc3[nH]c(=O)cc(C(F)(F)F)c3c2)cc(OC)c1` [Example 103, 2-Oxo-4-trifluoromethyl-1,2-dihydroquinoline-6-sulfonic acid(3,5-dimethoxyphenyl)amide] yielded an IC50 of 0.2 µM.

In the case of `O=c1cc(C(F)(F)F)c2cc(S(=O)(=O)Nc3ccc(CCO)cc3)ccc2[nH]1` [Example 113, 2-Oxo-4-trifluoromethyl-1,2-dihydroquinoline-6-sulfonic acid[4-(2-hydroxyethyl)phenyl]amide], the IC50 is > 10 µM.

Consider `COc1ccccc1NS(=O)(=O)c1ccc2c(c1)c(C(F)(F)F)cc(=O)n2C` [Example 20, 1-Methyl-2-oxo-4-trifluoromethyl-1,2-dihydroquinoline-6-sulfonicacid (2-methoxyphenyl)amide], for which the IC50 was > 10 µM.

As to `Cn1c(=O)cc(C(F)(F)F)c2cc(S(=O)(=O)N(CCO)Cc3ccccc3)ccc21` [Example 6, 1-Methyl-2-oxo-4-trifluoromethyl-1,2-dihydroquinoline-6-sulfonicacid benzyl(2-hydroxyethyl)-amide], the IC50 was > 10 µM.

On to `O=c1cc(C(F)(F)F)c2cc(S(=O)(=O)NCc3cccs3)ccc2[nH]1` [Example 118, 2-Oxo-4-trifluoromethyl-1,2-dihydroquinoline-6-sulfonic acid(thiophen-2-ylmethyl)amide], for which the half-maximal inhibitory concentration (IC50) was > 10 µM.

Take `Cn1c(=O)cc(C(F)(F)F)c2cc(S(=O)(=O)NCCCCc3ccccc3)ccc21` [Example 57, 1-Methyl-2-oxo-4-trifluoromethyl-1,2-dihydroquinoline-6-sulfonicacid (4-phenylbutyl)amide]: the IC50 was > 10 µM.

Consider `CC(C)c1ccc(NS(=O)(=O)c2ccc3[nH]c(=O)cc(C(F)(F)F)c3c2)cc1` [Example 97, 2-Oxo-4-trifluoromethyl-1,2-dihydroquinoline-6-sulfonic acid(4-isopropylphenyl)amide], for which the IC50 was 0.2 µM.

As to `CCCCN(C)S(=O)(=O)c1ccc2[nH]c(=O)cc(C(F)(F)F)c2c1` [Example 76, 2-Oxo-4-trifluoromethyl-1,2-dihydroquinoline-6-sulfonic acidbutylmethylamide], the IC50 was 0.21 µM.

For the compound `Cc1ccc(F)cc1CNS(=O)(=O)c1ccc2[nH]c(=O)cc(C(F)(F)F)c2c1` [Example 137, 2-Oxo-4-trifluoromethyl-1,2-dihydroquinoline-6-sulfonic acid5-fluoro-2-methylbenzylamide], the IC50 is 3.76 µM.

With `Cc1ccc(CNS(=O)(=O)c2ccc3c(c2)c(C(F)(F)F)cc(=O)n3C)cc1` [Example 51, 1-Methyl-2-oxo-4-trifluoromethyl-1,2-dihydroquinoline-6-sulfonicacid 4-methylbenzylamide], the IC50 was > 10 µM.

With `O=c1cc(C(F)(F)F)c2cc(S(=O)(=O)Nc3ccc(F)cc3F)ccc2[nH]1` [Example 94, 2-Oxo-4-trifluoromethyl-1,2-dihydroquinoline-6-sulfonic acid(2,4-difluorophenyl)amide], the IC50 is > 10 µM.

`Cn1c(=O)cc(C(F)(F)F)c2cc(S(=O)(=O)Nc3cc4ccccc4cn3)ccc21` [Example 32, 1-Methyl-2-oxo-4-trifluoromethyl-1,2-dihydroquinoline-6-sulfonicacid isoquinolin-3-ylamide]: the IC50 was > 10 µM.

As for `CN1CCCC1CCNS(=O)(=O)c1ccc2[nH]c(=O)cc(C(F)(F)F)c2c1` (stereo not shown) [Example 134, 2-Oxo-4-trifluoromethyl-1,2-dihydroquinoline-6-sulfonic acid[2-(1-methylpyrrolidin-2-yl)ethyl]amide], the IC50 is > 10 µM.

For `O=c1cc(C(F)(F)F)c2cc(S(=O)(=O)NCc3cccc(Cl)c3F)ccc2[nH]1` [Example 141, 2-Oxo-4-trifluoromethyl-1,2-dihydroquinoline-6-sulfonic acid3-chloro-2-fluorobenzylamide], the IC50 is > 10 µM.

Consider `Cn1c(=O)cc(C(F)(F)F)c2cc(S(=O)(=O)NCCC(C)(C)C)ccc21` [Example 49, 1-Methyl-2-oxo-4-trifluoromethyl-1,2-dihydroquinoline-6-sulfonicacid (3,3-dimethylbutyl)amide], for which the IC50 was > 10 µM.

`Cc1ccc(-c2ccccc2)cc1NS(=O)(=O)c1ccc2c(c1)c(C(F)(F)F)cc(=O)n2C` [Example 27, 1-Methyl-2-oxo-4-trifluoromethyl-1,2-dihydroquinoline-6-sulfonicacid (4-methylbipheny-3-yl)amide] had an IC50 of 0.84 µM.

On to `O=c1cc(C(F)(F)F)c2cc(S(=O)(=O)Nc3cccnc3)ccc2[nH]1` [Example 81, 2-Oxo-4-trifluoromethyl-1,2-dihydroquinoline-6-sulfonic acidpyridin-3-ylamide], for which the IC50 is > 10 µM.

For the compound `O=c1cc(C(F)(F)F)c2cc(S(=O)(=O)N[C@H]3CCCC[C@H]3OCc3ccccc3)ccc2[nH]1` [Example 160, 2-Oxo-4-trifluoromethyl-1,2-dihydroquinoline-6-sulfonic acid(2-benzyloxycyclohexyl)amide], the IC50 is > 10 µM.

For the compound `O=c1cc(C(F)(F)F)c2cc(S(=O)(=O)NCc3ccc(F)cc3)ccc2[nH]1` [Example 129, 2-Oxo-4-trifluoromethyl-1,2-dihydroquinoline-6-sulfonic acid4-fluorobenzylamide], the IC50 was > 10 µM.

Take `Cc1ccc(CNS(=O)(=O)c2ccc3[nH]c(=O)cc(C(F)(F)F)c3c2)c(F)c1F` [Example 145, 2-Oxo-4-trifluoromethyl-1,2-dihydroquinoline-6-sulfonic acid2,3-difluoro-4-methylbenzylamide]: the IC50 is > 10 µM.

As to `Cc1cc2c(NS(=O)(=O)c3ccc4[nH]c(=O)cc(C(F)(F)F)c4c3)cccc2nn1` [Example 108, 2-Oxo-4-trifluoromethyl-1,2-dihydroquinoline-6-sulfonic acid(3-methylcinnolin-5-yl)amide], the IC50 is > 10 µM.

`COCCNS(=O)(=O)c1ccc2[nH]c(=O)cc(C(F)(F)F)c2c1` [Example 119, 2-Oxo-4-trifluoromethyl-1,2-dihydroquinoline-6-sulfonic acid(2-methoxyethyl)amide] had an IC50 of 4.69 µM.

On to `O=c1cc(C(F)(F)F)c2cc(S(=O)(=O)NCc3cccnc3)ccc2o1` [Example 64, 2-Oxo-4-trifluoromethyl-2H-chromene-6-sulfonic acid(pyridin-3-ylmethyl)amide], for which the IC50 was > 10 µM.

On to `Cn1nc(C(C)(C)C)cc1NS(=O)(=O)c1ccc2[nH]c(=O)cc(C(F)(F)F)c2c1` [Example 104, 2-Oxo-4-trifluoromethyl-1,2-dihydroquinoline-6-sulfonic acid(5-tert-butyl-2-methyl-2H-pyrazol-3-yl)amide], for which the concentration for half-maximal inhibition (IC50) is > 10 µM.

Turning to `COc1ccccc1CCNS(=O)(=O)c1ccc2c(c1)c(C(F)(F)F)cc(=O)n2C` [Example 58, 1-Methyl-2-oxo-4-trifluoromethyl-1,2-dihydroquinoline-6-sulfonicacid [2-(2-methoxyphenyl)ethyl]amide], inhibition was half-maximal at 5.4 µM (IC50).

In turn, `N#CCc1ccc(NS(=O)(=O)c2ccc3[nH]c(=O)cc(C(F)(F)F)c3c2)cc1` [Example 95, 2-Oxo-4-trifluoromethyl-1,2-dihydroquinoline-6-sulfonic acid(4-cyanomethylphenyl)amide] displayed an IC50 of 0.84 µM.

Regarding `Cc1ccccc1CNS(=O)(=O)c1ccc2c(c1)c(C(F)(F)F)cc(=O)n2C` [Example 52, 1-Methyl-2-oxo-4-trifluoromethyl-1,2-dihydroquinoline-6-sulfonicacid 2-methylbenzylamide], the IC50 was > 10 µM.

On to `Cn1c(=O)cc(C(F)(F)F)c2cc(S(=O)(=O)NCCC3=CCCCC3)ccc21` [Example 53, 1-Methyl-2-oxo-4-trifluoromethyl-1,2-dihydroquinoline-6-sulfonicacid (2-cyclohex-1-enylethyl)amide], for which 1.84 µM corresponded to half-maximal inhibition (IC50).
